{
  "source": "BindingDB's records for doi:10.1021/acs.jmedchem.9b01663",
  "about": "(Dalian University of Technology, 2020)",
  "assay": "Inhibition of CRM1 in human HCT-15 cells assessed as reduction in cell viability incubated for 24 hrs",
  "data": [
    {"molecule": "[O-][S@@+](/C=C/CCN=C=S)c1cc(C(F)(F)F)cc(C(F)(F)F)c1", "values": [
      {"measurement": "IC50", "result": 151, "unit": "nM"}
    ]}
  ]
}
